According to patent US20130254944A1, “Herbicide Tolerant Soybeans and Methods of Use” (PIONEER HI BRED INTERNATIONAL INC, priority 2012, published 2013):

Key:
Assay type in all cases: in vivo
[1] = system: wild type soybean; assay: Greenhouse postemergence test of ALS-inhibiting herbicides, wild type soybean
Procedure: (§1) Soybean lines having wild type als1 & 2 genes, the Als1 mutation, the Als2 mutation, or both the Als1 and Als2 mutations were evaluated for their response to various herbicides. Two seeds from each line were planted into 4-inch pots containing Redi-Earth potting mix (Sun Gro Horticulture Canada Ltd. 52130 RR65, Seba Beach, Alberta TOE 2B0), with two replications planted for each treatment. Pots were placed in flats at 15 pots/flat, and the resulting plants were grown in a greenhouse environment supplemented with lighting (16 hr photoperiod) for the duration of the test. Selected herbicides representing the mode of action that inhibits the acetolactate synthase enzyme, also known as the acetohydroxyacid synthase enzyme, were applied postemergence to soybean when soybean plants were at the V2 growth stage, which is the stage at which the first two trifoliolate leaves were expanded.
(§2) Eleven active ingredients representing the five chemical families with herbicidal activity on the acetolactate synthase enzyme were tested. These herbicides can cause a phytotoxic response in wild type soybean plants. The five chemical families tested were sulfonylaminocarbonyltriazolinone (also known as triazolinone), imidazolinone, sulfonylurea, pyrimidinylthiobenzoate, and triazolopyrimidine. Application rates ranged from 0.5 times to eight times the currently labeled application rate for each active ingredient with spray application volume at 30 gallons/acre. The application rates tested were 0.5×, 1×, 2×, 4× and 8× the label rate for each herbicide. Herbicidal active ingredients were applied as formulated materials dispersed in water containing 0.25% nonionic surfactant (Trend® 90).
(§3) The test was evaluated by visually scoring plant phenotype 14 days after the herbicides were applied. Controls consisted of soybean plants of the same variety that received no herbicide treatments for each of all the varieties tested. Soybean response was recorded on a zero to 100 visual scale in which zero is no phytotoxic response and 100 is plant death fourteen days after the herbicides were applied. Soybean response (percent phytotoxicity) to postemergence applications of herbicides inhibiting the acetolactate synthase enzyme test results are shown in Table 1.

[2] = system: soybean having the Als1 mutation; assay: Greenhouse postemergence test of ALS-inhibiting herbicides, soybean with Als1 mutation; conditions: for Avg response (% phytotoxicity), Trait Als1: Table 2
Procedure: as §1, §2, §3
(§4) Results in Table 1 were evaluated using the isobole method for analyzing interactions. […] Here the biologically active agents that are being assessed for interaction (synergy) are gene mutations in soybean. The effectiveness of the genes in providing improved tolerance to ALS-inhibiting herbicides was assessed by applying increasing doses of herbicides to each soybean line with its mutation(s).
(§5) An isobole reduces a dose response surface in three dimensional space to a two dimensional plot by fixing a defined response level (e.g., 50% response). The isobole plot is a graph in the Cartesian plane with a straight line connecting the isoeffective rates of the individual components of the combination. This straight line represents expected responses for zero interactive combinations. The isoeffective rate used to create the isobole is often the EC50, the rate estimated to elicit 50% response, but other ECx values can be used. Since the isobole method is based on the potency of the components of the combination, an experimental design testing a range of rates expected to elicit the full range of responses (e.g., 0 to maximum response) is best. (Ferry et al. (2005) 2005 Conference on Applied Statistics in Agriculture Proceedings pp 33-50, Manhattan, Kans., Kansas State Univ.; Green and Streibig (1993) Herbicide Mixtures, pp 117-134 in Herbicide Bioassays, Streibig and Hudsk Eds, CRC, Boca Raton, Fla.).
(§6) Loglogistic dose response curves were fit to percent phytotoxicity response data using log 10 of dose (McCullagh and Nelder (1989) Generalized Linear Models, Chapman & Hall, London). Curves were fit using the logit link with normal errors. […]

[3] = system: soybean having the Als2 mutation; assay: Greenhouse postemergence test of ALS-inhibiting herbicides, soybean with Als2 mutation; conditions: for Avg response (% phytotoxicity), Trait Als2: Table 2
Procedure: as §1, §2, §3, §4, §5, §6

[4] = system: soybean having both the Als1 and Als2 mutations; assay: Greenhouse postemergence test of ALS-inhibiting herbicides and isobole analysis, soybean with Als1 and Als2 mutations; conditions: for Avg response (% phytotoxicity), Trait Als1 + Als2: Table 2
Procedure: as §1, §2, §3, §4, §5, §6

[5] = 4.38 g ai/ha postemergence at V2, scored 14 days after application
[6] = 8.75 g ai/ha postemergence at V2, scored 14 days after application
[7] = 17.5 g ai/ha postemergence at V2, scored 14 days after application
[8] = 35 g ai/ha postemergence at V2, scored 14 days after application
[9] = 70 g ai/ha postemergence at V2, scored 14 days after application
[10] = rates 0.5x to 8x the label rate
[11] = rate of herbicide estimated to cause 10% phytotoxic response, loglogistic fit
[12] = 140 g ai/ha postemergence at V2, scored 14 days after application
[13] = 280 g ai/ha postemergence at V2, scored 14 days after application
[14] = 560 g ai/ha postemergence at V2, scored 14 days after application

SMILES: COc1nc(C)nc(NC(=O)NS(=O)(=O)c2ccsc2C(=O)O)n1 [Thifensulfuron]
- Soybean response (percent phytotoxicity), Wild type [1, 5]: 0%
- Soybean response (percent phytotoxicity), Wild type [1, 6]: 10%
- Soybean response (percent phytotoxicity), Wild type [1, 7]: 10%
- Soybean response (percent phytotoxicity), Wild type [1, 8]: 25%
- Soybean response (percent phytotoxicity), Wild type [1, 9]: 45%
- Soybean response (percent phytotoxicity), Als1 [2, 5]: 0%
- Soybean response (percent phytotoxicity), Als1 [2, 6]: 0%
- Soybean response (percent phytotoxicity), Als1 [2, 7]: 0%
- Soybean response (percent phytotoxicity), Als1 [2, 8]: 0%
- Soybean response (percent phytotoxicity), Als1 [2, 9]: 0%
- phytotoxic response (in words), Als1 [2, 10]: did not cause any phytotoxic response
- Soybean response (percent phytotoxicity), Als2 [3, 5]: 0%
- Soybean response (percent phytotoxicity), Als2 [3, 6]: 0%
- Soybean response (percent phytotoxicity), Als2 [3, 7]: 0%
- Soybean response (percent phytotoxicity), Als2 [3, 8]: 0%
- Soybean response (percent phytotoxicity), Als2 [3, 9]: 0%
- phytotoxic response (in words), Als2 [3, 10]: did not cause any phytotoxic response
- Soybean response (percent phytotoxicity), Als1 + Als2 [4, 5]: 0%
- Soybean response (percent phytotoxicity), Als1 + Als2 [4, 6]: 0%
- Soybean response (percent phytotoxicity), Als1 + Als2 [4, 7]: 0%
- Soybean response (percent phytotoxicity), Als1 + Als2 [4, 8]: 0%
- Soybean response (percent phytotoxicity), Als1 + Als2 [4, 9]: 0%
- phytotoxic response (in words), Als1+Als2 [4, 10]: did not cause any phytotoxic response

SMILES: Cc1cc(C)nc(NC(=O)NS(=O)(=O)c2ccccc2C(=O)O)n1 [Sulfometuron]
- Soybean response (percent phytotoxicity), Wild type [1, 5]: 60%
- Soybean response (percent phytotoxicity), Wild type [1, 6]: 95%
- Soybean response (percent phytotoxicity), Wild type [1, 7]: 98%
- Soybean response (percent phytotoxicity), Wild type [1, 8]: 98%
- Soybean response (percent phytotoxicity), Wild type [1, 9]: 98%
- Soybean response (percent phytotoxicity), Als1 [2, 5]: 0%
- Avg response (% phytotoxicity), Trait Als1 ([2]; 4.38 g ai/ha): 0%
- Soybean response (percent phytotoxicity), Als1 [2, 6]: 0%
- Avg response (% phytotoxicity), Trait Als1 ([2]; 8.75 g ai/ha): 0%
- Soybean response (percent phytotoxicity), Als1 [2, 7]: 10%
- Avg response (% phytotoxicity), Trait Als1 ([2]; 17.5 g ai/ha): 10%
- Soybean response (percent phytotoxicity), Als1 [2, 8]: 55%
- Avg response (% phytotoxicity), Trait Als1 ([2]; 35 g ai/ha): 55%
- Soybean response (percent phytotoxicity), Als1 [2, 9]: 80%
- Avg response (% phytotoxicity), Trait Als1 ([2]; 70 g ai/ha): 80%
- EC10, Als1 [2, 11]: 14.93 g ai/ha
- phytotoxicity (in words), soybean containing only the Als1 gene ([2]; the higher doses): substantial phytotoxicity
- Soybean response (percent phytotoxicity), Als2 [3, 5]: 35%
- Avg response (% phytotoxicity), Trait Als2 ([3]; 4.38 g ai/ha): 35%
- Soybean response (percent phytotoxicity), Als2 [3, 6]: 40%
- Avg response (% phytotoxicity), Trait Als2 ([3]; 8.75 g ai/ha): 40%
- Soybean response (percent phytotoxicity), Als2 [3, 7]: 70%
- Avg response (% phytotoxicity), Trait Als2 ([3]; 17.5 g ai/ha): 70%
- Soybean response (percent phytotoxicity), Als2 [3, 8]: 75%
- Avg response (% phytotoxicity), Trait Als2 ([3]; 35 g ai/ha): 75%
- Soybean response (percent phytotoxicity), Als2 [3, 9]: 80%
- Avg response (% phytotoxicity), Trait Als2 ([3]; 70 g ai/ha): 80%
- EC10, Als2 [3, 11]: 0.76 g ai/ha
- phytotoxicity (in words), soybean containing only the Als2 gene ([3]; the higher doses): substantial phytotoxicity
- Soybean response (percent phytotoxicity), Als1 + Als2 [4, 5]: 0%
- Avg response (% phytotoxicity), Trait Als1 + Als2 ([4]; 4.38 g ai/ha): 0%
- Soybean response (percent phytotoxicity), Als1 + Als2 [4, 6]: 0%
- Avg response (% phytotoxicity), Trait Als1 + Als2 ([4]; 8.75 g ai/ha): 0%
- Soybean response (percent phytotoxicity), Als1 + Als2 [4, 7]: 0%
- Avg response (% phytotoxicity), Trait Als1 + Als2 ([4]; 17.5 g ai/ha): 0%
- Soybean response (percent phytotoxicity), Als1 + Als2 [4, 8]: 10%
- Avg response (% phytotoxicity), Trait Als1 + Als2 ([4]; 35 g ai/ha): 10%
- Soybean response (percent phytotoxicity), Als1 + Als2 [4, 9]: 5%
- Avg response (% phytotoxicity), Trait Als1 + Als2 ([4]; 70 g ai/ha): 5%
- EC10, Als1 + Als2 [4, 11]: 114.81 g ai/ha
- tolerance (in words), soybean containing both the Als1 and the Als2 genes ([4]; the higher doses): extremely tolerant

SMILES: COc1cc(OC)nc(Sc2cccc(Cl)c2C(=O)O)n1 [Pyrithiobac sodium]
- Soybean response (percent phytotoxicity), Wild type [1, 8]: 70%
- Soybean response (percent phytotoxicity), Wild type [1, 9]: 95%
- Soybean response (percent phytotoxicity), Wild type [1, 12]: 98%
- Soybean response (percent phytotoxicity), Wild type [1, 13]: 98%
- Soybean response (percent phytotoxicity), Wild type [1, 14]: 98%
- Soybean response (percent phytotoxicity), Als1 [2, 8]: 20%
- Avg response (% phytotoxicity), Trait Als1 ([2]; 35 g ai/ha): 20%
- Soybean response (percent phytotoxicity), Als1 [2, 9]: 50%
- Avg response (% phytotoxicity), Trait Als1 ([2]; 70 g ai/ha): 50%
- Soybean response (percent phytotoxicity), Als1 [2, 12]: 70%
- Avg response (% phytotoxicity), Trait Als1 ([2]; 140 g ai/ha): 70%
- Soybean response (percent phytotoxicity), Als1 [2, 13]: 98%
- Avg response (% phytotoxicity), Trait Als1 ([2]; 280 g ai/ha): 98%
- Soybean response (percent phytotoxicity), Als1 [2, 14]: 97%
- Avg response (% phytotoxicity), Trait Als1 ([2]; 560 g ai/ha): 96.5%
- Soybean response (percent phytotoxicity), Als2 [3, 8]: 20%
- Avg response (% phytotoxicity), Trait Als2 ([3]; 35 g ai/ha): 40%
- Soybean response (percent phytotoxicity), Als2 [3, 9]: 30%
- Avg response (% phytotoxicity), Trait Als2 ([3]; 70 g ai/ha): 60%
- Soybean response (percent phytotoxicity), Als2 [3, 12]: 40%
- Avg response (% phytotoxicity), Trait Als2 ([3]; 140 g ai/ha): 80%
- Soybean response (percent phytotoxicity), Als2 [3, 13]: 45%
- Avg response (% phytotoxicity), Trait Als2 ([3]; 280 g ai/ha): 92.5%
- Soybean response (percent phytotoxicity), Als2 [3, 14]: 49%
- Avg response (% phytotoxicity), Trait Als2 ([3]; 560 g ai/ha): 98%
- Soybean response (percent phytotoxicity), Als1 + Als2 [4, 8]: 0%
- Avg response (% phytotoxicity), Trait Als1 + Als2 ([4]; 35 g ai/ha): 0%
- Soybean response (percent phytotoxicity), Als1 + Als2 [4, 9]: 5%
- Avg response (% phytotoxicity), Trait Als1 + Als2 ([4]; 70 g ai/ha): 5%
- Soybean response (percent phytotoxicity), Als1 + Als2 [4, 12]: 25%
- Avg response (% phytotoxicity), Trait Als1 + Als2 ([4]; 140 g ai/ha): 25%
- Soybean response (percent phytotoxicity), Als1 + Als2 [4, 13]: 45%
- Avg response (% phytotoxicity), Trait Als1 + Als2 ([4]; 280 g ai/ha): 45%
- Soybean response (percent phytotoxicity), Als1 + Als2 [4, 14]: 50%
- Avg response (% phytotoxicity), Trait Als1 + Als2 ([4]; 560 g ai/ha): 50%
